Measured values reported in US6391304B1, “Peptides derived from the ENV gene of the feline immunodeficiency virus and their applications” (Centre National de la Recherche Scientifique, priority 1997, dated 2002).
Ends that are not written are not given here.

Experiments:
[1] = tested on: FIV Wo isolate; experiment: Viral load in the tissues by competitive RT-PCR; type: in vivo, cats; settings: 5 weeks after the test, FIG. 4
Description: The cats are sacrificed five weeks after the virulence test. The lymphoid organs (spleen, thymus, axial lymphatic ganglia) are recovered and frozen in liquid nitrogen, for extraction of the RNA.
Frozen spleen and thymus tissues are reduced to powder and immediately dispersed in the lysis buffer provided with the RNA extraction kit (RNeasy, Qiagene), with the aid of a tissue homogenizer (Ultra-Turrax). The frozen axillary lymphatic ganglia are dispersed directly in the lysis buffer; the RNA is then extracted using the RNeasy kit, according to the manufacturer's instructions.
The contaminant DNA is removed by hydrolysis with DNase 1 (RQ1. RNase-free DNase, Promega).
The viral load in the tissues is evaluated 5 weeks after the test by counting the number of copies of viral RNA in the axillary lymphatic ganglia and in the thymus by competitive RT-PCR.
Given that the amplified fragment (amplicon) is located in the intron of the sub-genomic viral RNA, the copies of viral RNA counted in the tissues represent the complete transcripts, which are either intracellular or encapsidated in the extracellular viral particles.

[2] = tested on: SU2 envelope peptide; experiment: Seroconversion ELISA after the virulence test, SU2 peptide; type: in vivo, cats
Method: The cats are subjected to a virulence test, one week after the final immunization, by means of an intraperitoneal inoculation of 10 CID50 of FIV Wo isolate, one CID50 corresponding to the dose capable of infecting 50% of the cats.
(§1) The production on of antibodies is evaluated before the test by means of an ELISA using an immobilized peptide (SU2, SU5, TM2 or TM3-19) and immunoprecipitation. After the test, the seroconversion is monitored by an ELISA using immobilized envelope peptides and a recombinant FTV capsid protein.
(§2) The ELISA with the immobilized envelope peptides corresponding to the immunogenic domains SU2 and TM2 and with the immobilized recombinant p25 protein (FIV capsid protein) is carried out as described in Avraméas A. et al. (Res. Virol., 1993, 144, 209-218).
Microplates (Immunolon II, Dynatech) are coated with 0.5 μg/well for the peptides and with 0.1 μg/well for the p25 protein.
The tests are carried out in duplicate and the results are expressed as average values.
(§3) After the test, the seroconversion against the envelope peptides and the p25 protein is evaluated at serum dilutions of 1/25 and 1/100, respectively.
The absorbance values (at 405 nm) are corrected by subtraction of the absorbance values obtained by binding with an immobilized control peptide.
The tests are normalized with reference to the binding of a mixture of serum from cats infected with FIV with a peptide representing the immunodominant domain of the FIV transmembrane glycoprotein (TM2) (Avraméas A. et al., Res. Virol., 1993, 144, 209-218).

[3] = tested on: envelope glycoproteins of the Wo strain; experiment: Immunoprecipitation of envelope glycoproteins by sera (infected PBM cells); type: in vivo; settings: PBM cell lysates after acute infection with FIV Wo; group of four cats
Description: (§4) The sera collected on the day of the test (at a dilution of 1/40) are used to immunoprecipitate the envelope glycoproteins derived from the metabolically labelled FL-4 cells and feline mononuclear cells (PBM cells) infected with the FIV Wo strain, as described in G. Pancino et al. (Virology, 1995, 206, 796-806).
Given that the TM3-19 peptide, deduced from the Env sequence of the FIV Wo strain, comprises 4 different residues out of 19, relative to the Petaluma sequence, the capacity to immunoprecipitate sera before the test of the cats immunized with the TM3-19 peptide was tested against the envelope glycoproteins of the Wo strain, obtained from PBM cell lysates after acute infection with the FIV Wo strain.

[4] = tested on: viral components (SU2 and TM2 peptides, recombinant capsid protein); experiment: Antiviral humoral response after the virulence test (ELISA with viral components); type: in vivo; settings: in comparison with the control cats
Method: as §1, §2, §3
After testing with the FIV Wo strain, most of the cats show a humoral response with respect to the viral components, as illustrated by the ELISA with the SU2 and TM2 peptides, derived from the external and transmembrane glycoproteins, respectively, and the recombinant capsid protein.

[5] = tested on: envelope glycoproteins of the Petaluma strain; experiment: Immunoprecipitation of envelope glycoproteins by sera (metabolically labelled FL-4 cells); type: in vivo, FIV; settings: lysates of chronically infected FL-4 cells; groups of four cats
Description: as §4
The recognition of the envelope glycoproteins is estimated by immunoprecipitation of the biosynthetically labelled envelope glycoprotein with sera collected on the day of the test, as summarized in Table I.

[6] = ELISA, seral dilution 1/25, individual cats

Substance	level of viral RNA in the spleen [1]	levels of viral RNA in the axillary lymphatic ganglia [1]	antibody response with respect to the SU2 peptide ([2]; 5 weeks after the test)	Binding of the sera to SU2, 3 weeks after the virulence test [2, 6] [optical density]	Binding of the sera to SU2, 4 weeks after the virulence test [2, 6] [optical density]	Binding of the sera to SU2, 5 weeks after the virulence test [2, 6] [optical density]	cats whose sera precipitate the envelope protein of the Wo strain [3]	development of an antiviral humoral response after the virulence test [4]	cats whose sera immunoprecipitate the envelope glycoproteins of the Petaluma strain [5]
KKGLQQLQEWEDWVGWIGN [TM3-19, 19-amino-acid fragment of the TM3 domain of the FIV Wo Env transmembrane glycoprotein (759-777)]	particularly low in one cat (348)	lower in three cats (346, 348 and 349)	none of the cats immunized with the TM3-19 peptide developed a detectable antibody response	0	0	0	only the sera of 2 cats (346, 347)	weaker and retarded in 3 cats (346, 348, 349)	
SU2: peptide of the SU2 domain of the FIV surface envelope glycoprotein, SEQ ID NO: 2, used as immunogen (RAISSWKQRNRWEWRPD)									3 of the 4 cats (324, 325 and 327)
